From PubChem BioAssay AID1259407 (Chemical Carcinogenesis Research Information System (CCRIS), 2018) come the findings set out here.

Active and inactive are the calls of the source. How the calls were made is not given here.

This data set deals with CCRIS mutagenicity, Ames/micronucleus/aberration tests. Kind of data set: CCRIS mutagenicity studies.
The mark [1] stands for this setting: Test System: AMES SALMONELLA TYPHIMURIUM, Strain/Indicator: TA98, Metabolic Activation: NONE, Method: PREINCUBATION
[2] abbreviates: Test System: AMES SALMONELLA TYPHIMURIUM, Strain/Indicator: TA100, Metabolic Activation: HAMSTER, LIVER, S-9, AROCLOR 1254 (10%), Method: PREINCUBATION
Where [3] appears, read: Test System: AMES SALMONELLA TYPHIMURIUM, Strain/Indicator: TA100, Metabolic Activation: NONE, Method: PREINCUBATION
The mark [4] stands for this setting: Test System: AMES SALMONELLA TYPHIMURIUM, Strain/Indicator: TA100, Metabolic Activation: NONE, Method: STANDARD PLATE.
[5] abbreviates: Test System: AMES SALMONELLA TYPHIMURIUM, Strain/Indicator: TA100, Metabolic Activation: RAT, LIVER, S-9, AROCLOR 1254 (10%), Method: PREINCUBATION
[6] abbreviates: Test System: AMES SALMONELLA TYPHIMURIUM, Strain/Indicator: TA104, Metabolic Activation: NONE, Method: STANDARD PLATE.
Setting [7] is: Test System: AMES SALMONELLA TYPHIMURIUM, Strain/Indicator: TA1535, Metabolic Activation: NONE, Method: STANDARD PLATE.
Where [8] appears, read: Test System: AMES SALMONELLA TYPHIMURIUM, Strain/Indicator: TA1537, Metabolic Activation: NONE, Method: PREINCUBATION
Setting [9] is: Test System: AMES SALMONELLA TYPHIMURIUM, Strain/Indicator: TA1535, Metabolic Activation: NONE, Method: PREINCUBATION

On to `S=C1NCCN1`, for which the mutagenic call is “inactive; negative” (Test System: AMES SALMONELLA TYPHIMURIUM, Strain/Indicator: TA98, Metabolic Activation: HAMSTER, LIVER, S-9, AROCLOR 1254 (10%), Method: PREINCUBATION); “inactive; negative” under setting [1]; “inactive; negative” (Test System: AMES SALMONELLA TYPHIMURIUM, Strain/Indicator: TA98, Metabolic Activation: NONE, Method: STANDARD PLATE); “inactive; negative” (Test System: AMES SALMONELLA TYPHIMURIUM, Strain/Indicator: TA98, Metabolic Activation: RAT, LIVER, S-9, AROCLOR 1254 (10%), Method: PREINCUBATION); “inactive; negative” (Test System: AMES SALMONELLA TYPHIMURIUM, Strain/Indicator: TA98, Metabolic Activation: RAT, LIVER, S-9, AROCLOR 1254, Method: STANDARD PLATE); “inactive; negative” under setting [2]. Further, the mutagenic call under setting [3] is “inactive; negative”; the mutagenic call under setting [4] is “inactive; negative”; the mutagenic call under setting [5] is “inactive; negative”; the mutagenic call (Test System: AMES SALMONELLA TYPHIMURIUM, Strain/Indicator: TA100, Metabolic Activation: RAT, LIVER, S-9, AROCLOR 1254, Method: STANDARD PLATE) was “inactive; negative”; the mutagenic call (Test System: AMES SALMONELLA TYPHIMURIUM, Strain/Indicator: TA102, Metabolic Activation: NONE, Method: STANDARD PLATE) is “inactive; negative”; the mutagenic call (Test System: AMES SALMONELLA TYPHIMURIUM, Strain/Indicator: TA102, Metabolic Activation: RAT, LIVER, S-9, AROCLOR 1254, Method: STANDARD PLATE) is “inactive; negative”. Also, the mutagenic call under setting [6] is “inactive; negative”; the mutagenic call (Test System: AMES SALMONELLA TYPHIMURIUM, Strain/Indicator: TA104, Metabolic Activation: RAT, LIVER, S-9, AROCLOR 1254, Method: STANDARD PLATE) is “inactive; negative”; the mutagenic call under setting [7] was “active; positive”; the mutagenic call (Test System: AMES SALMONELLA TYPHIMURIUM, Strain/Indicator: TA1535, Metabolic Activation: S-9 MIX, Method: STANDARD PLATE) was “active; positive”; the mutagenic call (Test System: AMES SALMONELLA TYPHIMURIUM, Strain/Indicator: TA1537, Metabolic Activation: HAMSTER, LIVER, S-9, AROCLOR 1254 (10%), Method: PREINCUBATION) was “inactive; negative”; the mutagenic call under setting [8] is “inactive; negative”. The mutagenic call runs as follows: (Test System: AMES SALMONELLA TYPHIMURIUM, Strain/Indicator: TA1537, Metabolic Activation: RAT, LIVER, S-9, AROCLOR 1254 (10%), Method: PREINCUBATION) “inactive; negative”; (Test System: MOUSE LYMPHOMA, Strain/Indicator: L5178Y (TK+/TK-), Metabolic Activation: NONE, Method: SUSPENSION/PLATE) “inactive; negative”; (Test System: MOUSE LYMPHOMA, Strain/Indicator: L5178Y (TK+/TK-), Metabolic Activation: RAT, LIVER, S-9, AROCLOR 1254, Method: SUSPENSION/PLATE) “active; positive”.
As to `CC(=O)OCc1cc(C(C)=O)ccc1OC(C)=O`, the mutagenic call (Test System: AMES SALMONELLA TYPHIMURIUM, Strain/Indicator: TA100(PKM101), Metabolic Activation: NONE, Method: STANDARD PLATE) was “active; positive”; the mutagenic call under setting [4] is “active; positive”; the mutagenic call under setting [7] was “inactive; negative”; the mutagenic call (Test System: AMES SALMONELLA TYPHIMURIUM, Strain/Indicator: TA1538, Metabolic Activation: NONE, Method: STANDARD PLATE) was “inactive; negative”; the mutagenic call (Test System: E. COLI, Strain/Indicator: TK701(PKM101), Metabolic Activation: NONE, Method: STANDARD PLATE) is “active; positive”; the mutagenic call (Test System: E. COLI, Strain/Indicator: TK701, Metabolic Activation: NONE, Method: STANDARD PLATE) is “active; positive”. In addition, the mutagenic call runs as follows: (Test System: E. COLI, Strain/Indicator: TK702(PKM101), Metabolic Activation: NONE, Method: STANDARD PLATE) “active; positive”; (Test System: E. COLI, Strain/Indicator: TK702, Metabolic Activation: NONE, Method: STANDARD PLATE) “inactive; negative”.
Turning to `CC(=O)Nc1ccc(S(=O)(=O)Cl)cc1`, the mutagenic call under setting [1] was “inactive; negative”; the mutagenic call (Test System: AMES SALMONELLA TYPHIMURIUM, Strain/Indicator: TA98, Metabolic Activation: RAT LIVER S-9, PHENOBARBITAL AND BETA-NAPHTHOFLAVONE, Method: PREINCUBATION) was “inactive; negative”; the mutagenic call under setting [3] is “inactive; negative”; the mutagenic call (Test System: AMES SALMONELLA TYPHIMURIUM, Strain/Indicator: TA100, Metabolic Activation: RAT LIVER S-9, PHENOBARBITAL AND BETA-NAPHTHOFLAVONE, Method: PREINCUBATION) is “inactive; negative”; the mutagenic call (Test System: AMES SALMONELLA TYPHIMURIUM, Strain/Indicator: TA102, Metabolic Activation: NONE, Method: PREINCUBATION) is “inactive; negative”; the mutagenic call (Test System: AMES SALMONELLA TYPHIMURIUM, Strain/Indicator: TA102, Metabolic Activation: RAT LIVER S-9, PHENOBARBITAL AND BETA-NAPHTHOFLAVONE, Method: PREINCUBATION) is “inactive; negative”. The mutagenic call runs as follows: (Test System: AMES SALMONELLA TYPHIMURIUM, Strain/Indicator: TA104, Metabolic Activation: NONE, Method: PREINCUBATION) “inactive; negative”; (Test System: AMES SALMONELLA TYPHIMURIUM, Strain/Indicator: TA104, Metabolic Activation: RAT LIVER S-9, PHENOBARBITAL AND BETA-NAPHTHOFLAVONE, Method: PREINCUBATION) “inactive; negative”; under setting [9], “inactive; negative”; (Test System: AMES SALMONELLA TYPHIMURIUM, Strain/Indicator: TA1535, Metabolic Activation: RAT LIVER S-9, PHENOBARBITAL AND BETA-NAPHTHOFLAVONE, Method: PREINCUBATION) “inactive; negative”; under setting [8], “inactive; negative”; (Test System: AMES SALMONELLA TYPHIMURIUM, Strain/Indicator: TA1537, Metabolic Activation: RAT LIVER S-9, PHENOBARBITAL AND BETA-NAPHTHOFLAVONE, Method: PREINCUBATION) “inactive; negative”. The mutagenic call is, setting by setting: (Test System: E.COLI, Strain/Indicator: WP2UVRA/PKM101, Metabolic Activation: NONE, Method: PREINCUBATION) “inactive; negative”; (Test System: E.COLI, Strain/Indicator: WP2UVRA/PKM101, Metabolic Activation: RAT LIVER S-9, PHENOBARBITAL AND BETA-NAPHTHOFLAVONE, Method: PREINCUBATION) “inactive; negative”; (Test System: E.COLI, Strain/Indicator: WP2UVRA, Metabolic Activation: NONE, Method: PREINCUBATION) “inactive; negative”; (Test System: E.COLI, Strain/Indicator: WP2UVRA, Metabolic Activation: RAT LIVER S-9, PHENOBARBITAL AND BETA-NAPHTHOFLAVONE, Method: PREINCUBATION) “inactive; negative”.
Take `ClC(Cl)(Cl)C1CO1` (stereo not given): the mutagenic call under setting [2] was “active; positive”; the mutagenic call under setting [3] was “active; positive”; the mutagenic call under setting [4] was “active; positive”; the mutagenic call under setting [5] was “active; positive”; the mutagenic call under setting [6] is “active; positive”; the mutagenic call (Test System: AMES SALMONELLA TYPHIMURIUM, Strain/Indicator: TA1535, Metabolic Activation: HAMSTER, LIVER, S-9, AROCLOR 1254 (10%), Method: PREINCUBATION) was “inactive; negative”. The mutagenic call reads like this: under setting [9], “active; positive”; (Test System: AMES SALMONELLA TYPHIMURIUM, Strain/Indicator: TA1535, Metabolic Activation: RAT, LIVER, S-9, AROCLOR 1254 (10%), Method: PREINCUBATION) “inactive; negative”; (Test System: AMES SALMONELLA TYPHIMURIUM, Strain/Indicator: TA4001, Metabolic Activation: NONE, Method: STANDARD PLATE) “active; positive”; (Test System: AMES SALMONELLA TYPHIMURIUM, Strain/Indicator: TA4006, Metabolic Activation: NONE, Method: STANDARD PLATE) “active; positive”.
